pIC50: −log10 of the molar value. Each block holds one compound with its values, some of them ahead of it.
Tests used:
Rattus norvegicus [1] = assay: Anti-inflammatory activity in Rattus norvegicus (rat) assessed as inhibition of carrageenan-induced paw edema at […] relative to control; format: functional
Rattus norvegicus [2] = assay: Anti-inflammatory activity in Rattus norvegicus (rat) assessed as inhibition of carrageenan-induced paw edema at 100 mg/kg, po relative to control; format: functional
Rattus norvegicus [3] = assay: Anti-inflammatory activity in Rattus norvegicus (rat) assessed as inhibition of carrageenan-induced paw edema at 0.1 mmoles/kg relative to control; format: functional; details: read-out: INH
[4] = molecular target: T1, Seed linoleate 13S-lipoxygenase-1 (Glycine max) (UniProt P08170); assay: Inhibition of Glycine max (soybean) lipooxygenase
T1 sequence (whole entry): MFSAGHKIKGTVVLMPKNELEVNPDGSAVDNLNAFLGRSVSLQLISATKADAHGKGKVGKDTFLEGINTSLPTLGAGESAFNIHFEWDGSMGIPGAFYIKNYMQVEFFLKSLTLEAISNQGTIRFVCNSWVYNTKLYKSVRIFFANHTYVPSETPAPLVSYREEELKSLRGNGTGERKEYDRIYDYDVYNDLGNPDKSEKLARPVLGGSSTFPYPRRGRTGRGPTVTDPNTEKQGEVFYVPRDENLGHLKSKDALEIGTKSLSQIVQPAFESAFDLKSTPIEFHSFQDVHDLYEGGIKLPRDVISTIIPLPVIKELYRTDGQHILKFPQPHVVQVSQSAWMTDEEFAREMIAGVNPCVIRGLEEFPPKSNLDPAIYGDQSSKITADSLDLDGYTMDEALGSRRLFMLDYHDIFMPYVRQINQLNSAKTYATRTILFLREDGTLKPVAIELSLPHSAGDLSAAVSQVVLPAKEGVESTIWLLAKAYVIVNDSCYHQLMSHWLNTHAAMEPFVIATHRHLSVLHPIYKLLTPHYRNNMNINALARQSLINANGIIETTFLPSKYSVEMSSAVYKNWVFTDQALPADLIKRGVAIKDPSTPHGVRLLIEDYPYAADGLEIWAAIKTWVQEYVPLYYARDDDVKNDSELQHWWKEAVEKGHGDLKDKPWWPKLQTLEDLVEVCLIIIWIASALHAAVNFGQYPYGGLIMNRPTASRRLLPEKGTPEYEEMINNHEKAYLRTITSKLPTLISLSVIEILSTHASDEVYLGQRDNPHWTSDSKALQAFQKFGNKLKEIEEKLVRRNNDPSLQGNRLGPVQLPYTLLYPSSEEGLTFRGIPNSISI

Rattus norvegicus [5] = assay: Anti-inflammatory activity in Rattus norvegicus (rat) assessed as inhibition of carrageenan-induced paw edema relative to control; format: functional
Rattus norvegicus [6] = assay: Anti-inflammatory activity in albino Rattus norvegicus (rat) assessed as inhibition of carrageenan-induced paw edema at 10 mg/kg, po administered 1 hr prior to carrageenan-challenge measured after 3 hr relative to control; format: functional
Rattus norvegicus [7] = assay: Anti-inflammatory activity in albino Rattus norvegicus (rat) assessed as inhibition of carrageenan-induced paw edema at 10 mg/kg, po administered 30 min prior to carrageenan-challenge measured after 5 hr relative to control; format: functional
Rattus norvegicus [8] = assay: Anti-inflammatory activity in albino Rattus norvegicus (rat) assessed as inhibition of carrageenan-induced paw edema at 100 mg/kg, po administered 30 min prior to carrageenan-challenge measured after 5 hr relative to control; format: functional
PBMC = assay: Anti-inflammatory activity in Homo sapiens (human) PBMC assessed as inhibition of LPS-induced TNFalpha production; format: functional, cell-based
[9] = molecular target: Prostaglandin G/H synthase 1 (Homo sapiens) (UniProt P23219); assay: Inhibition of COX1 (unknown origin); details: concentration not given here
Prostaglandin G/H synthase 1 (Homo sapiens), sequence (P23219 whole entry): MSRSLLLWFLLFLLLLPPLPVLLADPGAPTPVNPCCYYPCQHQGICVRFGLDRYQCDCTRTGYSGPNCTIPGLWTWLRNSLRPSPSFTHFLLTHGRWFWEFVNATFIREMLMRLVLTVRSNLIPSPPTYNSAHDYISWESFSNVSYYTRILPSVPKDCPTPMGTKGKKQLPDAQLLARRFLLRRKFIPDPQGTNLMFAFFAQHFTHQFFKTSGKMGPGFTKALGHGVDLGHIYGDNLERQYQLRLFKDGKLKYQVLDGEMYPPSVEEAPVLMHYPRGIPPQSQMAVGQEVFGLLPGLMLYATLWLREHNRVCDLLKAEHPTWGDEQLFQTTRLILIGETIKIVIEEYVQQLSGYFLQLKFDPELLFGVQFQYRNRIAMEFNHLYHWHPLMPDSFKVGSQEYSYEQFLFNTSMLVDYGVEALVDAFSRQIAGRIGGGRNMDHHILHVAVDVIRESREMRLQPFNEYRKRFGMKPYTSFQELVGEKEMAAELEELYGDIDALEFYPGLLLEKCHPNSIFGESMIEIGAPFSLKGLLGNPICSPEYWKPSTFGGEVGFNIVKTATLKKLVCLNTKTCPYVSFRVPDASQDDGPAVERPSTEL

Structure (SMILES): COc1ccc(-c2cc(-c3c(OC)ccc4c(C)cc(=O)oc34)no2)cc1
- inhibition (INH) (Rattus norvegicus [1]): 72%

Structure (SMILES): O=c1oc2ccccc2cc1/N=C/c1ccc(Cl)cc1
- inhibition in vivo at 100 mg/kg (Rattus norvegicus [2]): 75%

- inhibition [4]: 100%
Structure (SMILES): CCOC(=O)c1cc(=O)oc2c3c(c4ccccc4c12)OC(C)(C)[C@@H](O)[C@H]3O
- inhibition in vivo at 100 µmol/kg (Rattus norvegicus [3]): 59%

Structure (SMILES): O=C(O)c1ccccc1NC(=O)c1cc2cc(Cl)ccc2oc1=O
- inhibition (INH) (Rattus norvegicus [5]): 54%

Structure (SMILES): COc1ccc2c(c1)c(CC(=O)O)c(C)n2C(=O)c1ccc(Cl)cc1 [INDOMETHACIN]
- inhibition in vivo at 10 mg/kg (Rattus norvegicus [6]): 56.5%
- inhibition in vivo at 10 mg/kg (Rattus norvegicus [7]): 71%

- inhibition [4]: 76%
Structure (SMILES): COC(=O)/N=C(/N)c1cc(=O)oc2ccccc12

Structure (SMILES): CO/N=C/c1ccc2ccc(=O)oc2c1
- inhibition (INH) (Rattus norvegicus [5]): 54%

Structure (SMILES): CN/N=C/c1ccc2ccc(=O)oc2c1
- inhibition (INH) (Rattus norvegicus [5]): 54%

Structure (SMILES): CC(=O)N1N=C(c2cc3cc(Br)ccc3oc2=O)CC1c1ccc([N+](=O)[O-])cc1 (stereo unspecified)
- inhibition in vivo at 100 mg/kg (Rattus norvegicus [8]): 66.5%

Structure (SMILES): COc1ccc2c(C)cc(=O)oc2c1-c1cc(-c2ccc(Cl)cc2)on1
- inhibition (INH) (Rattus norvegicus [1]): 68%

Structure (SMILES): N/C(=N/C(=O)Oc1ccccc1)c1cc(=O)oc2ccccc12
- inhibition (INH) (Rattus norvegicus [5]): >80%

Structure (SMILES): O=c1oc2ccccc2cc1/N=C/c1ccc(Cl)c(Cl)c1
- inhibition in vivo at 100 mg/kg (Rattus norvegicus [2]): 60%

Structure (SMILES): COc1ccc2c(C3=NOSN3c3ccccc3)cc(=O)oc2c1
- inhibition in vivo at 10 mg/kg (Rattus norvegicus [6]): 55.3%

Structure (SMILES): CN(C)N/C(=N/O)c1cc(=O)oc2ccccc12
- inhibition (INH) (Rattus norvegicus [5]): >80%

Structure (SMILES): CCCC(=O)N/N=C/c1coc2ccccc2c1=O
- inhibition (INH) (Rattus norvegicus [5]): 80.78%

Structure (SMILES): CCNC(=O)Nc1ccc(-c2cc3ccc(OC(=O)N(CC)CC)cc3oc2=O)cc1
- pIC50 (PBMC): 6.49

Structure (SMILES): CCN(CC)C(=O)Oc1ccc2c(C)c(Cc3ccc(F)cc3)c(=O)oc2c1
- pIC50 (PBMC): 5.62

- inhibition [4]: 77%
Structure (SMILES): CC1=NC(c2cc(=O)oc3ccccc23)NO1 (stereo unspecified)

- inhibition [4]: 100%
Structure (SMILES): CCOC(=O)c1cc(=O)oc2c3c(c4ccccc4c12)OC(C)(C)[C@@H](O)[C@H]3OC(=O)c1cccc(Cl)c1
- inhibition in vivo at 100 µmol/kg (Rattus norvegicus [3]): 59%

Structure (SMILES): CN(C)C(=O)Oc1cc2oc(=O)c(-c3cccnc3)cc2cc1Cl
- pIC50 (PBMC): 6.35

- inhibition [9]: 39%
Structure (SMILES): Cc1c/c(=N\c2ccc([N+](=O)[O-])cc2)oc2cc(O)ccc12

- inhibition [9]: 78.6%
Structure (SMILES): O=c1ccc2ccc(/C=N/O)cc2o1

- inhibition [4]: 92.4%
Structure (SMILES): Cc1cc(=O)oc2cc(NCCN(CCN)CCN)ccc12
